Assay results reported in patent publication US10131663B2, “Chemical compounds” (AstraZeneca AB, priority 2016, dated 2018).
≈ marks a conversion by molar mass, not a printed value.

Key:
[1] = target: T1, Estrogen Receptor (ERα) in MCF-7 cells (Homo sapiens (Human), UniProt P03372); experiment: MCF-7 ER down-regulation assay (immuno-fluorescence); type: cell-based
How it was run: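 Compounds dispensed acoustically from DMSO stocks onto MCF-7 cells; cells fixed 20 min at room temperature, then automated immunostaining for ERα with overnight incubation at 4° C. Read-out is mean total ER fluorescence intensity normalized to cell number (intensity per cell), with curve fitting for concentration-response values.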

[2] = target: T1, Estrogen Receptor (ERα) in MCF-7 cells; experiment: Western blotting assay, ER down-regulation in MCF-7; type: cell-based; settings: 100 nM compound, 48 h, normalised to 100 nM fulvestrant
Method: (§1) Cells were incubated with compounds (100 nM) or vehicle control (0.1% DMSO) for 48 h at 37° C., 5% CO2 before washing once with PBS and lysing with 80 μl lysis buffer (25 mM Tris/HCl, 3 mM EDTA, 3 mM EGTA, 50 mM NaF, 2 mM sodium orthovanadate, 0.27 M sucrose, 10 mM β-glycerophosphate, 5 mM sodium pyrophosphate, 0.5% TritonX-100, pH 6.8) on ice.
(§2) Samples were boiled for 10 min at 95° C. and then frozen at −20° C. until ready for use.
(§3) The blot was stained with Ponceau S (P7170, Sigma) and cut according to appropriate molecular weight markers.
(§4) Membranes were blocked for 1 hour at room temp in 5% Marvel (w/v) in phosphate-buffered saline containing 0.05% Tween™ 20 (PBS/Tween). Blots were then incubated with anti-ERα (SP1) rabbit monoclonal antibody (Thermofisher) diluted 1:1000 at 4° C. overnight (with gentle shaking) followed by several washes with PBS/Tween. […] All antibodies were made up in 5% Marvel (w/v) in PBS/Tween.
(§5) Down-regulation of the ERα receptor was normalised to the vehicle control (0% down-regulation) and the 100 nM fulvestrant control (100% down-regulation) run within the same gel.

[3] = target: estrogen receptor (ERα) in CAMA-1 cells (Homo sapiens (Human), UniProt P03372); experiment: Western blotting assay, ER down-regulation in CAMA-1; type: cell-based; settings: 100 nM compound, 48 h, normalised to 100 nM fulvestrant
Method: as §1, §2, §3, §4, §5

[4] = Human plasma protein binding (equilibrium dialysis); type: in vitro ADME; settings: dialysis 18 hours
How it was run: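 Fraction unbound (fu %) in human plasma, from LC/MSMS of plasma and buffer sides (7-point plasma calibration) after 18 h rapid equilibrium dialysis. Single determinations, with compounds pooled up to 10 per plasma pool.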

[5] = target: recombinant human Estrogen Receptor alpha ligand binding domain (ER alpha-LBD (GST)) (Homo sapiens (Human), UniProt P03372); experiment: ERα binding assay (LanthaScreen TR-FRET competition); settings: TR-FRET, displacement of Fluormone ES2
How it was run: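 Competition binding to GST-tagged human ERα ligand-binding domain, read by LanthaScreen TR-FRET: Tb-anti-GST antibody labels the receptor and compounds displace a fluorescent tracer, lowering the signal. IC50 was taken from dose-response curve fitting.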

[6] = log D (shake flask, 1-octanol/aqueous buffer); type: physicochemical
How it was run: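 Distribution between 1-octanol and aqueous buffer at pH 7.4 was measured by shake flask, with compounds run in mixtures of ten. Relative concentrations in each phase were quantified by UPLC with quantitative MS. Caffeine served as a low-log D QC sample in all runs.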

[7] = Thermodynamic solubility (shake-flask); type: physicochemical; settings: aqueous phosphate buffer, 25 °C, pH 7.4, aqueous buffer, thermodynamic from solid, aqueous phosphate buffer pH 7.4, 24 hours
How it was run: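 Shake-flask method starting from 10 mM DMSO stocks, which are dried before use. Residue equilibrated 24 h at 25° C. in aqueous phosphate buffer, pH 7.4. Dissolved fraction separated and quantified by UPLC/MS/MS, with QC samples in each run.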

hERG potassium channel = hERG potassium channel (Homo sapiens (Human), UniProt Q12809); experiment: hERG binding assay (automated patch clamp, CHO cells); type: cell-based; settings: CHO cell line, Nanion Syncropatch 384PE
Method: Reagent preparations include: • 1.
Cell preparations: • 1. If using cell culture; cells to be incubated at 30° C. for approximately 4-6 days prior to being used. Day of assay lift cells using accutase and re-suspend in 20 ml cell buffer to a density of 0.8 to 1e6 cells/ml. • 2. If using assay ready cryovials; rapidly thaw two cryovials at 37° C. and slowly pipette into 23 ml external solution • 3.
All compounds were acoustically dispensed in quadruplicate using a Labcyte Echo. […] Fill 384 well medium resistance 4 hole chips with 40 μl external buffer and perfuse internal buffer to the underside of plate. • 2. Dispense 20 μl of cells into each well of the chip followed by 20 μl of seal enhancer. • 3. Remove 40 μl of reagent from each well to the wash station, leaving a residual volume of 40 μl • 4. Dispense 40 μl of reference buffer with a removal step of 40 μl after 3 min, repeat this step. • 5.
hERG-mediated currents were elicited using a voltage step protocol consisting of acontinuous holding voltage of −80 mV, with a 500 ms step to 60 mV followed by a 500 ms step to −40 mV every 15 seconds. hERG current magnitude was measured automatically from the leak-subtracted traces by the Nanion software by taking the peak of the hERG “tail” current at −40 mV every 15 seconds and taking the last three of these responses for each concentration to generate the concentration-effect curve.
Calculation of results is performed using APC package within Genedata. For the routine normalization of well data with Neutral and Inhibitor control well groups as reference, GeneData Assay Analyzer uses the following equation to normalize the signal values to the desired signal range:
[formula] • x is the measured raw signal value of a well • is the median of the measured signal values for the Central Reference (Neutral) wells on a plate • is the median of the measured signal values for the Scale Reference (Inhibitor) wells on a plate • CR is the desired median normalized value for the Central Reference (Neutral) • SR is the desired median normalized value for the Scale Reference (Inhibitor)

[8] = 1-octanol/aqueous buffer, pH 7.4, pH 7.4, 1-octanol/aqueous buffer

Sequence of recombinant human Estrogen Receptor alpha ligand binding domain (ER alpha-LBD (GST)) (P03372 307-554): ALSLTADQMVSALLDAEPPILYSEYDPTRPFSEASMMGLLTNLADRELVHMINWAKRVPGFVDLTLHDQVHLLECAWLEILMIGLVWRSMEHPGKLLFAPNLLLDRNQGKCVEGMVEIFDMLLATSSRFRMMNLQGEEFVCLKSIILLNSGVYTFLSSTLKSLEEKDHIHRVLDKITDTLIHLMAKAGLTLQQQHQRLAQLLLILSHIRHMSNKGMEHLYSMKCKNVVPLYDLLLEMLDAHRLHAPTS
Sequence of estrogen receptor (ERα) in CAMA-1 cells (P03372 whole entry): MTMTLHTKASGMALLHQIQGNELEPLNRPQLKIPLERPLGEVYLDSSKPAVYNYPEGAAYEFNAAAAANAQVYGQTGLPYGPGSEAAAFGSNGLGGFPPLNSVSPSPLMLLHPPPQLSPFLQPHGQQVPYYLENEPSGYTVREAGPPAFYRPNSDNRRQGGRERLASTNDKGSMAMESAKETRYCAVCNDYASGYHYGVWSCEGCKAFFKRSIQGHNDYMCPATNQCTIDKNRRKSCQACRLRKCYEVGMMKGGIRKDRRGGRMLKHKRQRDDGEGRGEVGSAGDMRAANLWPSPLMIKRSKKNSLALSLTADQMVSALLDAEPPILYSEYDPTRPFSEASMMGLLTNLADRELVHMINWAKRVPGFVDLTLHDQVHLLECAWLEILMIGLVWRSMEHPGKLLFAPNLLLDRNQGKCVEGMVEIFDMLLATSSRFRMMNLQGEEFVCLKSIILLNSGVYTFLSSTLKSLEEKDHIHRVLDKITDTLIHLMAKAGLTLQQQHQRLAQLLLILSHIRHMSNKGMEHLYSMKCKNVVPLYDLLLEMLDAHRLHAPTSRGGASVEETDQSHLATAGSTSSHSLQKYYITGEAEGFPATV
T1 sequence (P03372 whole entry): as above
Sequence of hERG potassium channel (Q12809 whole entry): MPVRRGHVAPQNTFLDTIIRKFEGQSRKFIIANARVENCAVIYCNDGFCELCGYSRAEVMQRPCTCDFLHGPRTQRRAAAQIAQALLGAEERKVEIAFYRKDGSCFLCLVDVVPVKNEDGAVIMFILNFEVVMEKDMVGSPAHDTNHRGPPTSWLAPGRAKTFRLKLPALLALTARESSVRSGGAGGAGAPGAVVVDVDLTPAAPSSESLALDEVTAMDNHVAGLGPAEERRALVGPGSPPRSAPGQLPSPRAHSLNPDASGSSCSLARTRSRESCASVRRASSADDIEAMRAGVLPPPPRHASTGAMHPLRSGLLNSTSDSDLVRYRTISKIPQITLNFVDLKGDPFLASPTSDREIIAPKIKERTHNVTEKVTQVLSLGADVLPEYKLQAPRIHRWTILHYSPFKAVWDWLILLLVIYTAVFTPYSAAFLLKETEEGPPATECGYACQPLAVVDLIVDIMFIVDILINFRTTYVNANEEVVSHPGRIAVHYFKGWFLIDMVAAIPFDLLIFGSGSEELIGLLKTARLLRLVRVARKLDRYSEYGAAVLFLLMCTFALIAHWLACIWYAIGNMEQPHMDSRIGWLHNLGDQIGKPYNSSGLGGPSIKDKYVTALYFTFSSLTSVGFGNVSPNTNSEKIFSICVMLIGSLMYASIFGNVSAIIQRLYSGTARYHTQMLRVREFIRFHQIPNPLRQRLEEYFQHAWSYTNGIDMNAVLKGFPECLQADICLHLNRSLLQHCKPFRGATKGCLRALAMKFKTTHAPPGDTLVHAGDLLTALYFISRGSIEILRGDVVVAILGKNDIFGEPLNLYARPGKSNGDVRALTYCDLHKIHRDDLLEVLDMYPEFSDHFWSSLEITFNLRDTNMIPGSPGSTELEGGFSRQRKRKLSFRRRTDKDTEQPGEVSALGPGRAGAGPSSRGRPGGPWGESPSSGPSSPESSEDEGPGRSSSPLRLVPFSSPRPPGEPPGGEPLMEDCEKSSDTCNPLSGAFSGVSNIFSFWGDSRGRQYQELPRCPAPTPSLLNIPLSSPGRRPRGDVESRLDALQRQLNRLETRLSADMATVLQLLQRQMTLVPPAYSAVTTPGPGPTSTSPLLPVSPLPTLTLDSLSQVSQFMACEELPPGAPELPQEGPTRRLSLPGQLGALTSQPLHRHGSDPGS

SMILES | IC50 [1] [nM] | MCF7 Western % ER deg vs Fv [2] [%] | CAMA1 Western % ER deg vs Fv [3] [%] | Human plasma protein binding (% free) [4] [% free] | IC50 [5] [nM] | logD [6, 8] | solubility at 24 h [7] [µM] | IC50 (hERG potassium channel) [nM] | logD ([6]; pH 7.4, 1-octanol/aqueous buffer)
C[C@@H]1Cc2c(ccc3[nH]ncc23)[C@@H](c2ccc(OC3CN(CCCF)C3)cn2)N1CC(F)F [Example 26, (6S,8R)-7-(2,2-difluoroethyl)-6-(5-((1-(3-fluoropropyl)azetidin-3-yl)oxy)pyridin-2-yl)-8-methyl-6,7,8,9-tetrahydro-3H-pyrazolo[4,3-f]isoquinoline] | 0.52 | 97 | 97 | 22 | 6.7 | 3 | 258 (≈ 119 µg/mL) | – | –
C[C@@H]1Cc2c(ccc3[nH]ncc23)[C@@H](c2ncc(NC3CN(CCCF)C3)cc2F)N1CC(F)F [Example 46, 6-((6S,8R)-7-(2,2-difluoroethyl)-8-methyl-6,7,8,9-tetrahydro-3H-pyrazolo[4,3-f]isoquinolin-6-yl)-5-fluoro-N-(1-(3-fluoropropyl)azetidin-3-yl)pyridin-3-amine] | 0.4 | 105 | 102 | 31 | 3.6 | 2.5 | > 1000 | > 40000 | –
COc1cc(NC2CN(CCCF)C2)c(F)cc1[C@@H]1c2ccc3[nH]ncc3c2C[C@@H](C)N1CC1(F)CC1 [Example 53, N-(2-fluoro-4-((6S,8R)-7-((1-fluorocyclopropyl)methyl)-8-methyl-6,7,8,9-tetrahydro-3H-pyrazolo[4,3-f]isoquinolin-6-yl)-5-methoxyphenyl)-1-(3-fluoropropyl)azetidin-3-amine] | 0.26 | 81 | 46 | 11 | 5.7 | 3.2 | 691 (≈ 355 µg/mL) | – | –
C[C@@H]1Cc2c(ccc3[nH]ncc23)[C@@H](c2c(F)cc(NC3CN(CCCF)C3)cc2F)N1CC(F)F [Example 49, N-(4-((6S,8R)-7-(2,2-difluoroethyl)-8-methyl-6,7,8,9-tetrahydro-3H-pyrazolo[4,3-f]isoquinolin-6-yl)-3,5-difluorophenyl)-1-(3-fluoropropyl)azetidin-3-amine] | 0.075 | 98 | 99 | – | 1.5 | 3.8 | 163 (≈ 80.4 µg/mL) | 8200 | –
COc1cc(NC2CN(CCC(F)(F)F)C2)ccc1[C@@H]1c2ccc3[nH]ncc3c2C[C@@H](C)N1CC1(F)CC1 [Example 56, N-(4-((6S,8R)-7-((1-fluorocyclopropyl)methyl)-8-methyl-6,7,8,9-tetrahydro-3H-pyrazolo[4,3-f]isoquinolin-6-yl)-3-methoxyphenyl)-1-(3,3,3-trifluoropropyl)azetidin-3-amine] | 0.58 | 61 | 52 | – | 8.2 | 3.6 | 377 (≈ 200 µg/mL) | – | –
C[C@@H]1Cc2c(ccc3[nH]ncc23)[C@@H](c2c(F)cc(NC3CN(CCCF)C3)cc2F)N1CC(F)(F)F [Example 8, N-(3,5-difluoro-4-((6S,8R)-8-methyl-7-(2,2,2-trifluoroethyl)-6,7,8,9-tetrahydro-3H-pyrazolo[4,3-f]isoquinolin-6-yl)phenyl)-1-(3-fluoropropyl)azetidin-3-amine] | 0.055 | 101 | 100 | 0.99 | 2 | 4.4 | 90 (≈ 46 µg/mL) | – | –
C[C@@H]1Cc2c(ccc3[nH]ncc23)[C@@H](c2c(F)cc(NC3CN(CCCF)C3)cc2F)N1CC(F)(F)CO [Example 5, 3-((6S,8R)-6-(2,6-difluoro-4-((1-(3-fluoropropyl)azetidin-3-yl)amino)phenyl)-8-methyl-3,6,8,9-tetrahydro-7H-pyrazolo[4,3-f]isoquinolin-7-yl)-2,2-difluoropropan-1-ol] | 0.077 | 99 | 109 | 8.6 | 2.2 | 3.3 | 297 (≈ 155 µg/mL) | 13000 | –
COc1cc(OC2CN(CCCF)C2)ccc1[C@@H]1c2ccc3[nH]ncc3c2C[C@@H](C)N1CC1(F)CC1 [Example 7, (6S,8R)-7-((1-fluorocyclopropyl)methyl)-6-(4-((1-(3-fluoropropyl)azetidin-3-yl)oxy)-2-methoxyphenyl)-8-methyl-6,7,8,9-tetrahydro-3H-pyrazolo[4,3-f]isoquinoline] | 0.4 | 90 | 90 | 11 | 8.4 | – | 470 (≈ 233 µg/mL) | – | 3.5
COc1cc(NC2CN(CCCF)C2)ncc1[C@@H]1c2ccc3[nH]ncc3c2C[C@@H](C)N1CC1(F)CC1 [Example 9, 5-((6S,8R)-7-((1-fluorocyclopropyl)methyl)-8-methyl-6,7,8,9-tetrahydro-3H-pyrazolo[4,3-f]isoquinolin-6-yl)-N-(1-(3-fluoropropyl)azetidin-3-yl)-4-methoxypyridin-2-amine] | > 300 | −13 | 25 | 21 | 360 | 1 | > 1000 | – | –
C[C@@H]1Cc2c(ccc3[nH]ncc23)[C@@H](c2cnc(NC3CN(CCCF)C3)cn2)N1CC(F)(F)F [Example 42, N-(1-(3-fluoropropyl)azetidin-3-yl)-5-((6S,8R)-8-methyl-7-(2,2,2-trifluoroethyl)-6,7,8,9-tetrahydro-3H-pyrazolo[4,3-f]isoquinolin-6-yl)pyrazin-2-amine] | 0.28 | 92 | 79 | – | 3.8 | 2.4 | 712 (≈ 340 µg/mL) | 7900 | –
